{"source": "patent US12708611B2", "about": "“Diagnostic and drug screening for molecular signatures of early onset sporadic parkinson's disease” (CEDARS-SINAI MEDICAL CENTER, priority 2018, dated 2026)", "key": {"P53": {"test_system": "P53", "assay": "Proteasome inhibition of DaN cultures, P53 western blot", "format": "cell-based, human", "details": "DaN cultures treated 24 hrs", "source_text": "(§1) Protein degradation can be largely divided into protosomal and autophagy/lysosomal degradation pathways."}, "α-Synuclein [1]": {"test_system": "α-Synuclein", "assay": "Proteasome inhibition of DaN cultures, α-Synuclein western blot", "format": "cell-based, human", "details": "DaN cultures treated 24 hrs", "source_text": "as §1"}, "TH [2]": {"test_system": "TH", "assay": "Injection into ventricles of WT mice, TH in striatum", "format": "in vivo, mouse", "details": "WT mice, 0.3, 3, and 30 uM injected into ventricles, 1 and 5 days post injection", "description": "(§2) In vivo, PEP stimulates synuclein degradation. Dosage studies of 0.3, 3, and 30 uM PEP was injected into the ventricles of WT mice."}, "p-PKCa": {"test_system": "p-PKCa", "assay": "Western blot of phosphorylated PKC alpha in treated DaNs", "format": "cell-based, human", "source_text": "(§3) The elevated phosphorylation of PKCa was absent in the undifferentiated iPSCs and no clear pattern was evident in peripheral blood from the individual patients indicating specificity to the differentiated DaNs."}, "PKC C1 domains": {"test_system": "PKC C1 domains", "details": "cited from earlier work"}, "cleaved caspase 3 (CC3)": {"test_system": "cleaved caspase 3 (CC3)", "assay": "Cleaved caspase 3 in time-course of PEP treatment of DaNs", "format": "cell-based, human", "details": "PD cells, on drug treatment; listed as PEP", "source_text": "as §3\n(§4) It is likely that the toxicity of PEP is more specific to highly proliferative cells whereas our differentiated neurons are largely post mitotoic."}, "DaN cultures": {"test_system": "DaN cultures", "assay": "LDH on drug treatment of DaN cultures (cell death)", "format": "cell-based, human", "source_text": "as §4"}, "LC3": {"test_system": "LC3", "assay": "Western blot of LC3 in PEP-treated DaNs", "format": "cell-based, human", "details": "PD cells", "source_text": "as §3"}, "synuclein": {"test_system": "synuclein", "assay": "Injection into ventricles of WT mice, synuclein in striatum", "format": "in vivo, mouse", "details": "WT mice, 0.3, 3, and 30 uM injected into ventricles, 1 and 5 days post injection", "description": "as §2"}, "[3]": {"assay": "PKC delta signal in DaN cultures on drug treatment", "format": "cell-based, human", "source_text": "as §4"}, "TH [4]": {"test_system": "TH", "assay": "TH gene expression along time-course of PEP treatment", "format": "cell-based, human", "details": "paired time-course samples", "source_text": "as §3"}, "α-Synuclein [5]": {"test_system": "α-Synuclein", "assay": "Western blot of α-Synuclein in iPSC-derived DaNs treated with lysosomal agonists", "format": "cell-based, human", "details": "for amount of α-Synuclein protein: DaNs from control lines", "description": "(§5) To test if the Inventors could reduce synuclein levels in our EOSPD DANs through activation of lysosomal specific pathways, the Inventors selected 3 lysosomal agonists. […] Starting at day 27, DaNs were treated for 3 days with the above lysosomal agonists.\nas §3"}, "[6]": {"test_system": "various cancer cell lines and primary acute myeloid leukaemia (AML) cells", "details": "cited from earlier work"}, "TH enzyme": {"test_system": "TH enzyme", "assay": "Western blot of TH enzyme in treated DaNs", "format": "cell-based, human", "details": "both control and PD DaNs", "description": "as §5"}, "LAMP1": {"test_system": "LAMP1", "assay": "Western blot of LAMP1 in PEP-treated DaNs", "format": "cell-based, human", "details": "for LAMP1 response to treatment: PD cells", "source_text": "as §3\nPEP is described as both an activator of the pro-apoptotic […] and an inhibitor of PKCα."}, "SNCA": {"test_system": "SNCA", "assay": "SNCA gene expression along time-course of PEP treatment", "format": "cell-based, human", "details": "paired time-course samples", "source_text": "as §3"}, "PC12 cell model": {"test_system": "PC12 cell model", "details": "cited from earlier work"}, "[7]": {"details": "time-course, control and PD DaNs"}, "[8]": {"details": "treated 3 days starting at day 27"}}, "note": "Entries after “also recorded” stand apart in the source; their conditions may differ. Where a SMILES comes first, the peptide text is derived from it. The star is where a group is joined. Cbz = O=C(OCc1ccccc1)*", "data": [{"compound": "CC(C)C[C@@H](C=O)NC(=O)[C@H](CC(C)C)NC(=O)[C@H](CC(C)C)NC(=O)OCc1ccccc1", "note": "[MG132] (Cbz-Leu-Leu-Leu-aldehyde)", "values": [{"measurement": "P53 level", "setting": "P53", "result": "accumulation of P53"}, {"measurement": "α-Synuclein levels", "setting": "α-Synuclein [1]", "result": "no substantial change"}]}, {"compound": "C/C=C(/C)C(=O)O[C@H]1C(C)=C[C@]23C(=O)[C@@H](C=C(CO)[C@@H](O)[C@]12O)[C@H]1[C@@H](C[C@H]3C)C1(C)C", "note": "[PEP005, ingenol-3-angelate]", "values": [{"measurement": "TH in mouse striatum", "setting": "TH [2]", "result": "increase in TH"}, {"measurement": "PKC alpha phosphorylation signal", "setting": "p-PKCa; control and PD DaNs, at endpoint", "result": "completely ablating this signal"}, {"measurement": "elevated phosphorylation of PKCa", "setting": "p-PKCa; luM PEP005 for 3 days, DaNs from all iPSC lines", "result": "clearly ablated"}, {"measurement": "time until p-PKCa is degraded in response to drug treatment", "setting": "p-PKCa; [7]", "result": "≤ 24", "unit": "h"}, {"measurement": "affinity for PKC C1 domains", "setting": "PKC C1 domains", "result": "subnanomolar affinity"}, {"measurement": "selectivity for individual PKC isoforms", "setting": "PKC C1 domains; in vitro", "result": "no selectivity"}, {"measurement": "cleaved caspase 3 (CC3) present", "setting": "cleaved caspase 3 (CC3)", "result": "marked decrease; also recorded: decrease in the amount of active caspase 3"}, {"measurement": "LDH on drug treatment", "setting": "DaN cultures", "result": "nor do the Inventors see an increase in LDH"}, {"measurement": "LC3 response to treatment", "setting": "LC3", "result": "neither LAMP1 nor LC3 respond"}, {"measurement": "synuclein in mouse striatum", "setting": "synuclein", "result": "Reduction of synuclein"}, {"measurement": "PKC6 signal", "setting": "[3]", "result": "did not observe a strong PKC6 signal"}, {"measurement": "time after initial exposure at which TH is upregulated", "setting": "TH [4]", "result": "roughly 8 hours"}, {"measurement": "amount of α-Synuclein protein", "setting": "α-Synuclein [5]; [8]", "result": "significantly reduced"}, {"measurement": "synuclein levels", "setting": "α-Synuclein [5]; ESOPD DaNs, treated 3 days starting at day 27", "result": "substantially reduced"}, {"measurement": "α-Synuclein levels", "setting": "α-Synuclein [5]; both control and PD DaNs", "result": "reduced"}, {"measurement": "synuclein", "setting": "α-Synuclein [5]; luM PEP005 for 3 days, all treated lines", "result": "reduced synuclein"}, {"measurement": "time until α-Synuclein is degraded in response to drug treatment", "setting": "α-Synuclein [5]; [7]", "result": "≤ 24", "unit": "h"}, {"measurement": "apoptosis", "setting": "[6]; leukemic cell lines and primary AML cells", "result": "induces apoptosis"}, {"measurement": "proliferation", "setting": "[6]; various cancer cell lines and primary AML cells", "result": "inhibiting proliferation"}, {"measurement": "amount of TH enzyme present", "setting": "TH enzyme", "result": "increased amount of TH enzyme present"}, {"measurement": "amount of TH enzyme present", "setting": "TH enzyme; listed as PEP", "result": "increase in the amount of TH"}, {"measurement": "LAMP1 response to treatment", "setting": "LAMP1", "result": "does not appear to be replicated"}, {"measurement": "LAMP1 response to treatment", "setting": "LAMP1; listed as PEP", "result": "neither LAMP1 nor LC3 respond"}, {"measurement": "lysosomal protein LAMP1", "setting": "LAMP1; control cells", "result": "increase"}, {"measurement": "time after treatment at which SNCA is downregulated", "setting": "SNCA", "result": 4, "unit": "h"}]}, {"compound": "C=CCNc1ncnc2ccc(Br)cc12", "note": "[SMER28]", "values": [{"measurement": "Huntington and α-Synuclein aggregates", "setting": "PC12 cell model", "result": "reduce Huntington and α-Synuclein aggregates"}, {"measurement": "amount of α-Synuclein protein", "setting": "α-Synuclein [5]; [8]", "result": "significantly reduced"}]}, {"compound": "OC[C@H]1O[C@H](O[C@H]2O[C@H](CO)[C@@H](O)[C@H](O)[C@H]2O)[C@H](O)[C@@H](O)[C@@H]1O", "note": "[Trehalose]", "values": [{"measurement": "amount of α-Synuclein protein", "setting": "α-Synuclein [5]; [8]", "result": "not Trehalose significantly reduced"}]}]}
